Reference: US20210172961A1, “METHODS FOR IDENTIFYING RNA EDITING-DERIVED EPITOPES THAT ELICIT IMMUNE RESPONSES IN CANCER” (Board of Regents, The University of Texas System, priority 2018, published 2021)

Experiments:
Assay type in all cases: cell-based, human
melanoma TILs = experiment: IFNγ ELISPOT of melanoma TILs incubated with synthetic peptide; conditions: for IFNγ production by TILs (ELISPOT response to peptide): 15 HLA-A*02:01-expressing melanoma TILs, peptide 10 μM
Description: To examine whether the detected HLA ligands are recognized by tumor-infiltrating lymphocytes (TILs) and if these TILs can kill cells presenting ED. For this analysis, matched autologous pairs of melanoma TILs and tumor cell lines were used. CCNI-ED peptide and its WT counterpart were synthesized and evaluated for their ability to activate TILs generated from human melanoma tumours.
Melanoma TILs were generated as described before. Briefly, melanoma tumor samples were either cut into 1-3 mm^2 fragments and put in culture in a tissue-treated 24-well plate, in complete TIL media (TIL-CM) consisting of RPMI 1640 (Gibco, 61871), 10% of human AB serum (GEMINI, 100-512), 0.1% of 2-mercaptoethanol (Gibco, 21985023), 1% of HEPES (Corning, 25-060), 1% sodium pyruvate (Invitrogen/Life Technologies, 11360-070), 1% of Glutomax (Gibco, 35050061), 1% PenStrep (ThermoFisher, 15070063) plus 6000 U/mL of human IL-2 or put in culture after the tumor samples were enzymatically digested by collagenase for 1 h at 37° C. followed by centrifugation using a multi-layer Ficoll gradient (100% and 75%, Ficoll-Paque PLUS, GE, 17-1440-02) where the 100% layer was collected for TILs. Every 3 days, half of the medium was replaced with fresh medium and the TIL culture was split to keep the cells at a density of 1×10^6/mL. TILs were expanded between 2 to 5 weeks, depending on the TIL lines. To increase the number of TILs available for experiments, the lines were further expanded using the rapid expansion protocol (REP). In brief, 1.5×10^5 primary TILs generated above were cultured with 27×10^6 feeder cells together with 0.6 mg soluble anti-CD3 monoclonal antibody (OKT3 clone, Muronomab—Abbott Labs). The feeder cells are peripheral blood mononuclear (PBMC) cells mixed from at least 5 healthy donors and irradiated at 5,000 cGy for 20 minutes prior to culture in order to prevent their proliferation during the REP. 6,000 U/mL IL-2 was added at the second day and half of the medium was recovered and replaced with fresh medium containing 50% of TIL-CM and 50% of AIM-V medium (Invitrogen, 12055-083) every 3 days to keep TIL density between 0.5-2×10^6/mL. The cultured TILs were harvested at day 14 for functional analysis or frozen in human serum with 10% DMSO (Thermo Fisher, 67-68-5). Autologous tumor cell lines were also established from the enzymatically digested tumours followed by the multi-layer Ficoll gradient where the 75% layer was collected and put in culture in complete tumor media (RPMI 1640, Gibco, 61871) containing 10% FBS, 1% HEPES (Corning, 25-060), 1% sodium pyruvate (Invitrogen/Life Technologies, 11360-070), 1% insulin/selenium/transferrin (Gibco, 51300), 0.2% MycoZap-PR (Lonza, VZA-2011). All tumor samples were HLA typed at the HLA-A locus in the MD Anderson HLA Typing Laboratory. […]

293-A2 cells = experiment: IFNγ ELISPOT of Ted10 with peptide-pulsed or CCNI-transfected 293-A2 cells; conditions: 293-A2 cells pulsed with peptide
Procedure: To investigate this relationship on cellular level, CCNI-ED10-specific effector T cells (Ted10) were generated from HLA-A*02:01-expressing normal peripheral blood mononuclear cells (PBMCs) using an established method.
IFNγ Enzyme-linked immunospot (ELISPOT) assay was performed to detect T-cell responses. MultiScreen 96 well filter plates (Millipore, MAHAS4510) were coated over night at 4° C. with 75 μL/well of […] anti-human IFNγ capture antibody (Mabtech AB, 3420-3-1000). TILs or CCNI-ED specific T cells (Ted10) were thawed and cultured with 1000U of human IL-2/mL overnight. On the next day, before performing ELISPOT assay, T cells were starved with IL-2 free medium for 6 hours. […] After 18 hours of cultivation at 37° C. and 5% CO2, the plates were incubated with 1 ng/mL of Biotinylated anti-human IFNγ monoclonal antibody (Mabtech, 3420-6-1000) for one hour, stained with ExtrAvidine®-Alkaline phosphatase (Sigma-Aldrich, E2636) and IFNγ positive spots were detected with BCIP/NBT Membrane Alkaline Phosphatase Substrate (Sigma, 11697471001). Plates were scanned and counted using the ImmunoSpot® ELISPOT analyzer (Shaker Heights, Ohio) to determine the number of spots/well. […]

T2 cells = experiment: Caspase3 based CTL killing assay, TIL2661 against peptide-pulsed T2 cells; conditions: T2 pulsed with 10 μM peptide, anti-caspase3 staining, flow cytometry
Description: T cells play a primary role in adaptive immunity against infections and tumorigenesis, and therapies based on manipulating T-cell activation have shown promise in cancer treatment. To determine the function of CCNI-ED specific T cells in mediating tumor cell killing, the HLA-A*02:01 expressing lymphoblast cell line T2, which is lacking expression of the transporter associated with antigen processing (TAP) and thus incapable of presenting endogenous peptides, were employed. The CCNI-WT or CCNI-ED peptide were pulsed onto T2 cells, co-cultured with TIL2661 in different ratios, and then measured T-cell mediated target cell death based on anti-caspase3 staining and subsequent flow cytometric quantification. […]
T cell-mediated cell killing was analyzed using a flow cytometry-based method by detecting T cell-induced caspase-3 cleavage in target cells. […] T cell-mediated caspase-3 cleavage was measured by intracellular staining with Cytofix/Cytoperm reagent (BD Biosciences, 554772) and PE conjugated anti-cleaved caspase-3 antibody (BD Bioscience, 550821) and the number of pre-apoptotic cells were determined by flow cytometry.

Row | Sequence | IFNγ ELISPOT response of TIL to peptide (melanoma TILs; TIL2576, parallel assay with the same TILs) | IFNγ production by TILs (ELISPOT response to peptide) (melanoma TILs; triplicates) | number of HLA-A*02:01-expressing TILs that responded (TIL2678, TIL2661, TIL2559) (melanoma TILs; IFNγ ELISPOT, triplicates) | IFNγ production by Ted10 (ELISPOT) (293-A2 cells) | TIL2661 mediated killing of peptide-pulsed T2 cells (T2 cells)
1 | LLDGFLATV (listed as Homo sapiens) [CCNI-ED9, RNA editing-derived HLA peptide, editing site CCNI R75G] | weakly reacted | – | – | – | –
2 | SLLDGFLATV (listed as Homo sapiens) [CCNI-ED10, RNA editing-derived HLA peptide, editing site CCNI R75G] | – | strongly responded | 3 out of 15 | potently activated | facilitated target killing
3 | SLLDRFLATV (listed as Homo sapiens) [CCNI-WT10, non-edited wildtype counterpart of CCNI-ED10, reference compound] | – | none of the TILs responded | – | – | CCNI-ED10, rather than CCNI-WT10, to T2 cells facilitated target killing
